Bounds are passed on as bounds.

Format in all cases: biochemical
For one assay, the target named is PI3Kδ (p110δ/p85α) (Homo sapiens (Human), UniProt O00329). As to the kind of experiment: PI3Kδ Scintillation Proximity Assay (Assay A3). The note with it: column b, Assay A3 (SPA), 20 μM ATP. Summed up: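 Radiometric SPA: 33P-labelled […] bound to WGA beads after EDTA/ATP quench, counted by scintillation, fitted against log inhibitor for IC50. Reaction: 4 nM PI3Kδ (p110δ/p85α), 20 μM ATP, 20 μM PIP2, pH 6.7 MOPS buffer with MgCl2, DTT, CHAPS, 0.5% DMSO, room temperature, 210 min.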
Chain of PI3Kδ (p110δ/p85α) (O00329 whole entry, species assumed): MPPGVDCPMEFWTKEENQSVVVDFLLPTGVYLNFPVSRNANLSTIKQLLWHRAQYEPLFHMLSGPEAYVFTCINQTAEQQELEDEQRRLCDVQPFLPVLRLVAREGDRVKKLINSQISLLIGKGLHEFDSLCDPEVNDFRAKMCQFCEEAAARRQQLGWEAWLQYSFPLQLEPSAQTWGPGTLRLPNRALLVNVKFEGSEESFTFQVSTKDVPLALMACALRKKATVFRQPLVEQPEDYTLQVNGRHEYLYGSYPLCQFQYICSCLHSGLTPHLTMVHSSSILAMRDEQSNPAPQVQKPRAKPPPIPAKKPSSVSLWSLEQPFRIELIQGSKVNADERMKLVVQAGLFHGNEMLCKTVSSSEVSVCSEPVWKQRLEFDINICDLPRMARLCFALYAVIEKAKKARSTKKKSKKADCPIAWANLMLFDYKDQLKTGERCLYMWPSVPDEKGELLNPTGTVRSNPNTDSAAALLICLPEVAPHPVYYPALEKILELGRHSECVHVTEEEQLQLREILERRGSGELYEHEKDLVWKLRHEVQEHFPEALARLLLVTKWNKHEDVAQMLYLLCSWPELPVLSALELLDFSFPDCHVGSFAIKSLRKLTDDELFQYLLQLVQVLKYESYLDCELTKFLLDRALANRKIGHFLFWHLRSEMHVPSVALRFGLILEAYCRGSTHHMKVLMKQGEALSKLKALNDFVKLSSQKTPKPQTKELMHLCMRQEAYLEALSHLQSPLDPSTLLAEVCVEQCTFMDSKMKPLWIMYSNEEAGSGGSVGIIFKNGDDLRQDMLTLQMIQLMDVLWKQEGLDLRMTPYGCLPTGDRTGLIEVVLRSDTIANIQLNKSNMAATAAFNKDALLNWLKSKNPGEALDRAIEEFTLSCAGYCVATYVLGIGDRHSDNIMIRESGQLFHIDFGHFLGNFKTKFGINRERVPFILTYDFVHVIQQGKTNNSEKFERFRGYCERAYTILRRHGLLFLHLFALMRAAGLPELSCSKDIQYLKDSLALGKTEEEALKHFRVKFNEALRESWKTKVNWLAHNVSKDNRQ
Chain of PI3Kδ (p110δ/p85α) (P27986 whole entry partner, species assumed): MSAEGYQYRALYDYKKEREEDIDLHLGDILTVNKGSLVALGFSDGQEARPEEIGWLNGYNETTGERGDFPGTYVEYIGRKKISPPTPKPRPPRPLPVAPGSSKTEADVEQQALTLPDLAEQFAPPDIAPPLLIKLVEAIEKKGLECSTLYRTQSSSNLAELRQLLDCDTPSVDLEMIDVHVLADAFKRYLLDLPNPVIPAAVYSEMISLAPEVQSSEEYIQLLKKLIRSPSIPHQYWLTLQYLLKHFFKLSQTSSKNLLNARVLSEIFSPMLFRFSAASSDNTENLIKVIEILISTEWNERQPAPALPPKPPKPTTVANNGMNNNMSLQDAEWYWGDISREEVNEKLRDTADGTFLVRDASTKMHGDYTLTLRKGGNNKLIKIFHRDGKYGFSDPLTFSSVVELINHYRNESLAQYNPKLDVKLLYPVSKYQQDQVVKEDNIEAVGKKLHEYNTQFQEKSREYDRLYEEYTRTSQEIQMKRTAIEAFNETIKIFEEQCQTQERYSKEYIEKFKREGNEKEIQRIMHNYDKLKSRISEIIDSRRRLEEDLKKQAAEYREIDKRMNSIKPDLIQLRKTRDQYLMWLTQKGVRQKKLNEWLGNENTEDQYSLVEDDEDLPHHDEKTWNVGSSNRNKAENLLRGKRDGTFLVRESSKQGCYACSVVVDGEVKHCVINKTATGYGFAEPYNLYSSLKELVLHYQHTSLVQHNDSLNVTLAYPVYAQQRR
In general terms: SPA uses beads or plates that emit light when radiolabelled molecules are held near them.

The next assay addresses PI3Kβ (Homo sapiens (Human), UniProt P42338). As to the kind of experiment: PI3K Enzyme Assay A2 ([γ-33P]ATP filter plate), PI3Kβ. Particulars: Assay A2, 1000 μM ATP. The procedure: Materials: Lipid kinase substrate, phosphoinositol-4,5-bisphosphate (PIP2), was purchased from Echelon Biosciences (Salt Lake City, Utah). PI3K isoforms α, β, δ and γ were purchased from Millipore (Bedford, Mass.). ATP, MgCh, DTT, EDTA, MOPS and CHAPS were purchased from Sigma-Aldrich (St. Louis, Mo.). The kinase reaction was conducted in clear-bottom 96-well plate from Thermo Fisher Scientific in a final volume of 24 μL. Inhibitors were first diluted serially in DMSO and added to the plate wells before the addition of other reaction components. The final concentration of DMSO in the assay was 0.5%. The PI3K assays were carried out at room temperature in 20 mM MOPS, pH 6.7, 10 mM MgCl2, 5 mM DTT and CHAPS 0.03%. The reaction mixture was prepared containing 50 μM PIP2, kinase and varying concentration of inhibitors. Reactions were initiated by the addition of ATP containing 2.2 μCi [γ-^33P]ATP to a final concentration of 1000 μM. […] Reactions were incubated for 180 min and terminated by the addition of 100 μL of 1 M potassium phosphate pH 8.0, 30 mM EDTA quench buffer. A 100 μL aliquot of the reaction solution was then transferred to 96-well Millipore MultiScreen IP 0.45 μm PVDF filter plate (The filter plate was prewetted with 200 μL 100% ethanol, distilled water, and 1 M potassium phosphate pH 8.0, respectively). The filter plate was aspirated on a Millipore Manifold under vacuum and washed with 18×200 μL wash buffer containing 1 M potassium phosphate pH 8.0 and 1 mM ATP. After drying by aspiration and blotting, the plate was air dried in an incubator at 37° C. overnight. Packard TopCount adapter (Millipore) was then attached to the plate followed with addition of 120 μL Microscint 20 scintillation cocktail (Perkin Elmer) in each well. After the plate sealing, the radioactivity of the product was determined by scintillation counting on Topcount (Perkin-Elmer). IC50 determination was performed by fitting the curve of percent control activity versus the log of the inhibitor concentration using the GraphPad Prism 3.0 software. […] See Table 1 for data related to compounds of the invention.

A further assay concerns the target PI3Kγ (Homo sapiens (Human), UniProt P48736). As to the kind of experiment: PI3K Enzyme Assay A2 ([γ-33P]ATP filter plate), PI3Kγ. Particulars: Assay A2, 1000 μM ATP. How it is done: Materials: Lipid kinase substrate, phosphoinositol-4,5-bisphosphate (PIP2), was purchased from Echelon Biosciences (Salt Lake City, Utah). PI3K isoforms α, β, δ and γ were purchased from Millipore (Bedford, Mass.). ATP, MgCh, DTT, EDTA, MOPS and CHAPS were purchased from Sigma-Aldrich (St. Louis, Mo.).
The kinase reaction was conducted in clear-bottom 96-well plate from Thermo Fisher Scientific in a final volume of 24 μL. Inhibitors were first diluted serially in DMSO and added to the plate wells before the addition of other reaction components. The final concentration of DMSO in the assay was 0.5%. The PI3K assays were carried out at room temperature in 20 mM MOPS, pH 6.7, 10 mM MgCl2, 5 mM DTT and CHAPS 0.03%. The reaction mixture was prepared containing 50 μM PIP2, kinase and varying concentration of inhibitors. Reactions were initiated by the addition of ATP containing 2.2 μCi [γ-^33P]ATP to a final concentration of 1000 μM. The final concentration of PI3K isoforms α, β, δ and γ in the assay were 1.3, 9.4, 2.9 and 10.8 nM respectively. Reactions were incubated for 180 min and terminated by the addition of 100 μL of 1 M potassium phosphate pH 8.0, 30 mM EDTA quench buffer. A 100 μL aliquot of the reaction solution was then transferred to 96-well Millipore MultiScreen IP 0.45 μm PVDF filter plate (The filter plate was prewetted with 200 μL 100% ethanol, distilled water, and 1 M potassium phosphate pH 8.0, respectively). The filter plate was aspirated on a Millipore Manifold under vacuum and washed with 18×200 μL wash buffer containing 1 M potassium phosphate pH 8.0 and 1 mM ATP. After drying by aspiration and blotting, the plate was air dried in an incubator at 37° C. overnight. Packard TopCount adapter (Millipore) was then attached to the plate followed with addition of 120 μL Microscint 20 scintillation cocktail (Perkin Elmer) in each well. After the plate sealing, the radioactivity of the product was determined by scintillation counting on Topcount (Perkin-Elmer). IC50 determination was performed by fitting the curve of percent control activity versus the log of the inhibitor concentration using the GraphPad Prism 3.0 software. […] See Table 1 for data related to compounds of the invention.

Chain of PI3Kβ (P42338 whole entry, species assumed, canonical isoform): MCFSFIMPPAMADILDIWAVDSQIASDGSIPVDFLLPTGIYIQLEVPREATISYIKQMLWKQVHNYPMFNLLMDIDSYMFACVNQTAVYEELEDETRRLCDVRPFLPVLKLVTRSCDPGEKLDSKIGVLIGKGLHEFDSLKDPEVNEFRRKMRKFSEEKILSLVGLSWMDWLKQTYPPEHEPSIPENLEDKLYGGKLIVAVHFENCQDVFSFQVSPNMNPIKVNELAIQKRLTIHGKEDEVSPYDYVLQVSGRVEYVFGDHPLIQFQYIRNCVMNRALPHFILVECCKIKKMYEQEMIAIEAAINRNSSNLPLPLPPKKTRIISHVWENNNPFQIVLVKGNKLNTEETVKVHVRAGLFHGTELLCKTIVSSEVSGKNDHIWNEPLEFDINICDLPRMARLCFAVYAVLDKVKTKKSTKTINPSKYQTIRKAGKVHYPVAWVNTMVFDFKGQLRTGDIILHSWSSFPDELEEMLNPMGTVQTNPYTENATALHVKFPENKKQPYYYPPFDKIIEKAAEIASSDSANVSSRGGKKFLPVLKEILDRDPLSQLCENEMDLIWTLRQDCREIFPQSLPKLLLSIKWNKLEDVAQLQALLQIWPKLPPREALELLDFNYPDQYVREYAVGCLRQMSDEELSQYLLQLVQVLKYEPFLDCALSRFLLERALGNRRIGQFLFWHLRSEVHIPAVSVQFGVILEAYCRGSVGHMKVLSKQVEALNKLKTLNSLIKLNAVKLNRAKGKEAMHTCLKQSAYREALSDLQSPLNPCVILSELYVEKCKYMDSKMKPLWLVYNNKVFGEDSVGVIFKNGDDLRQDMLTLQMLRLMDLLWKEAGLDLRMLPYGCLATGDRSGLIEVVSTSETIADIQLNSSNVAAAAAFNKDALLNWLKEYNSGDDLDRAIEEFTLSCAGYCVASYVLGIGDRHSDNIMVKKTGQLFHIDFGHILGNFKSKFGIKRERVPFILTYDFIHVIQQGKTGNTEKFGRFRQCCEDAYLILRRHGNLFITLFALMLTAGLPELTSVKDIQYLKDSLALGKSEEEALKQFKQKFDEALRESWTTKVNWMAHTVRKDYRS
Chain of PI3Kβ (P27986 whole entry partner, species assumed, canonical isoform): as the sequence (P27986 whole entry partner, species assumed) above
Chain of PI3Kγ (P48736 whole entry, species assumed, canonical isoform): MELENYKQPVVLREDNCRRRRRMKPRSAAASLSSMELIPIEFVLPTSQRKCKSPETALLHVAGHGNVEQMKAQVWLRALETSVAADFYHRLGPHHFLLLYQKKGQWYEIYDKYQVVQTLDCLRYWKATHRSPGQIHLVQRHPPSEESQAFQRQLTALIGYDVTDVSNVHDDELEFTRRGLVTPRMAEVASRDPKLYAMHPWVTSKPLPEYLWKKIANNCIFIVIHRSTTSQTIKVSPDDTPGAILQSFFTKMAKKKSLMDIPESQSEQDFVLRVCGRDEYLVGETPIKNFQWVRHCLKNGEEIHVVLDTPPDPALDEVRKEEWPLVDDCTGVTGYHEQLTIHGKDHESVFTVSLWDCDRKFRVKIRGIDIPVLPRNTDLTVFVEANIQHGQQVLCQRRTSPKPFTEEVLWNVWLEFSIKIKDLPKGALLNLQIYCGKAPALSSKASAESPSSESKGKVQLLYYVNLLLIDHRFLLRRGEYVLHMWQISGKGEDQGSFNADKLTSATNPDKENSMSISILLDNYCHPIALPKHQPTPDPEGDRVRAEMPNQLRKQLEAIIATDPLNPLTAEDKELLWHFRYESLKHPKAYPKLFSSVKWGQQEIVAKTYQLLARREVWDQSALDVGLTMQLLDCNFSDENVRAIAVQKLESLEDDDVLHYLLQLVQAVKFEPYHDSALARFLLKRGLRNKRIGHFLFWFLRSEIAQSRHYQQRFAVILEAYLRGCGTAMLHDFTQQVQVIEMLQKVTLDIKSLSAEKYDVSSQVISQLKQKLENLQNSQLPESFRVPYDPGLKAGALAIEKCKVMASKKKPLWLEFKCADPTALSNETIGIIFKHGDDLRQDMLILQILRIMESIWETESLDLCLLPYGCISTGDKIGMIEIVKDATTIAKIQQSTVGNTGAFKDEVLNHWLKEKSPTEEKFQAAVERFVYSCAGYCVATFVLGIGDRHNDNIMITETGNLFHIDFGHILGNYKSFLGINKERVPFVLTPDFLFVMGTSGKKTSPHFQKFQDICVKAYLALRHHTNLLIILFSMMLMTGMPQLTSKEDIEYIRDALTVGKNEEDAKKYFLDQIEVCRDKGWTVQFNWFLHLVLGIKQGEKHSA

One may read the IC50 as the midpoint of a concentration-inhibition curve. A higher IC50 goes with weaker potency. In the case of `Cc1csc2nc(C(C)Nc3nc(N)nc4[nH]cnc34)c(-c3ccccc3)c(=O)n12` (stereo not drawn) [Example 9, 7-{1-[(2-amino-9H-purin-6-yl)amino]ethyl}-3-methyl-6-phenyl-5H-[1,3]thiazolo[3,2-a]pyrimidin-5-one], the IC50 on PI3Kδ (p110δ/p85α) is below 50 nM; at PI3Kβ it was above 500 nM; against PI3Kγ, 50 to 100 nM.

On to `Cc1csc2nc(C(C)Nc3nc(N)nc4[nH]cnc34)c(-c3cccc(F)c3)c(=O)n12` (stereo not drawn) [Example 11, 7-{1-[(2-amino-9H-purin-6-yl)amino]ethyl}-6-(3-fluorophenyl)-3-methyl-5H-[1,3]thiazolo[3,2-a]pyrimidin-5-one], for which the IC50 against PI3Kδ (p110δ/p85α) is below 50 nM; against PI3Kβ, above 500 nM; against PI3Kγ, 100 to 500 nM.

`Cc1csc2nc(C(C)Nc3nc(N)nc4[nH]cnc34)c(-c3cc(F)cc(F)c3)c(=O)n12` (stereo not drawn) [Example 13, 7-{1-[(2-amino-9H-purin-6-yl)amino]ethyl}-6-(3,5-difluorophenyl)-3-methyl-5H-[1,3]thiazolo[3,2-a]pyrimidin-5-one]: the IC50 at PI3Kδ (p110δ/p85α) is below 50 nM; at PI3Kβ, above 500 nM; against PI3Kγ, 100 to 500 nM.

For the origin of these results see patent publication US9975907B2, “Pyrimidinones as PI3K inhibitors” (Incyte Corporation, priority 2009, dated 2018).
